Results: patent US5234909A, “Dipeptidic amides derived from glycyl-serine as surfactants or hydrating agents and cosmetic, pharmaceutical or alimentary compositions containing the same” (L'Oreal, priority 1991, dated 1993)
Where a SMILES comes first, the peptide text is derived from it. [ ]: non-standard residue; d: D form. The star is where a group is joined. ξ: configuration not given here. Oleoyl = CCCCCCCC/C=C\CCCCCCCC(=O)*; Lauroyl = CCCCCCCCCCCC(=O)*; ξS = NC(CO)C(=O)O

Legend:
[1] = Foaming power study (foam developed by brush in rotating graduated container); assay type: physicochemical; settings: 5% aqueous solution (weight/volume), 5 ml with 6 mg natural feminine sebum; for Foam Height (cm) at the end of a time of 60 sec: 60 sec of stirring; for Foam Height (cm) at the end of a time of 120 sec: 120 sec of stirring; for Foam Height (cm) at the end of a time of 180 sec: 180 sec of stirring
Experimental: The test consists in developing the foam using a brush made of natural hog bristles (length=18 mm) displaced in a plexiglass graduated cylindrical container (inside diameter=35 mm). This container is driven in a uniform circular motion which is the reverse of that described by the brush. This permits a good distribution of the foam in the graduated container despite the small amounts developed. (brush speed =100 rpm, container speed =10 rpm). The procedure is carried out using 5 ml of each solution studied to which has been added 6 mg of natural feminine sebum. The foam heights are recorded after one, two and three minutes of stirring.

[2] = tested on: human stratum corneum previously delipidated; assay: Hydrating effect on the skin: reduction of water loss of delipidated stratum corneum (evaporimeter); settings: 3% solution in 2:1 dichloromethane:methanol applied on delipidated human stratum corneum; measured 3 hours after treatment
Experimental: In this test, the hydrating effect is evaluated by measuring the reduction of water loss of human stratum corneum previously delipidated. The stratum corneum is delipidated for one hour with a 2:1 dichloromethane/methanol mixture.
This test is effected in accordance with a method analogous to that described by J. L. Leveque et coll., J. Soc. Cosmet. Chem., 30, 333-343 (1979).
The following procedures are carried out:
The water flow (g/m^2.H) traversing a sample of stratum corneum placed below a water reservoir is measured. Using an evaporimeter (Servomed, registered mark), the evaporation values before and after treatment are registered, and the eventual reduction of the insensible loss of water is thus determined.
The treatment consists in applying on the sample of stratum corneum […] of a 3% solution in a 2:1 dichloromethane: methanol mixture of the compound being studied. The measurements are carried out 3 hours after this treatment.
On the basis of this test the compound of Example 2 is compared with N-oleoyl-glycyl-glycine (compound B) and with the olvent (2:1 dichloromethane:methanol) alone.

Row | SMILES | Foam Height (cm) at the end of a time of 60 sec [1] | Foam Height (cm) at the end of a time of 120 sec [1] | Foam Height (cm) at the end of a time of 180 sec [1] | Reduction of the insensible loss of water [2]
1 | CCCCCCCCCCCC(=O)NCC(=O)NC(CO)C(=O)[O-].[Na+] (centres unmarked) [Ex. 5, Sodium Salt of N-dodecanoyl-glycyl-(D,L) Serine] (Lauroyl-Gly-[ξS]-OH) | 12.5 cm | 21.25 cm | 28.75 cm | 
2 | CCCCCCCC/C=C\CCCCCCCC(=O)NCC(=O)NC(CO)C(=O)O (centres unmarked) [Example 2, N-oleoyl-glycyl-(D,L) Serine] (Oleoyl-Gly-[ξS]-OH) |  |  |  | 32% ± 3
3 | CCCCCCCCCCCC(=O)NCC(=O)NCC(=O)[O-].[Na+] [compound A, sodium salt of N-dodecanoyl-glycyl-glycine] (Lauroyl-Gly-Gly-OH) | 11.25 cm | 13.75 cm | 20 cm | 
4 | CCCCCCCC/C=C\CCCCCCCC(=O)NCC(=O)NCC(=O)O [compound B, N-oleoyl-glycyl-glycine] (Oleoyl-Gly-Gly-OH) |  |  |  | 6% ± 3
